Reference: patent publication US9549884B2, “Retinoid derivatives and process for their preparation” (SELEGO AB, priority 2013, dated 2017)
≈ marks a conversion by molar mass, not a printed value.

Legend:
[1] = Storage stability study checked by HPLC; format: physicochemical; conditions: 0-4° C., 40-90% humidity
Procedure: A comparison in stability between Compound (Ia) and the substance retin-15-yl ester retinoic acid (CAS No. 15498-86-9) was outlined by performing HPCL analysis of the two compounds throughout an extended storage period.
The stability study was performed at 0-4° C. and 40-90% humidity. The samples of each product, packed in polyethylene bag inside a closed polyethylene box, were maintained under the above mentioned condition for the given time (see below). The stability of the product was checked by HPLC analysis using the method reported here below: A Young Lin YL9100 HPLC System was equipped with a variable volume automatic injector and a YL-Clarity data system. A Capcellpack UG 120 C-18, 150×4.6 mm, 5 μm, column from Agilent Technologies was used with a column temperature of 25±2° C., a flow rate of 1.5 ml/min, an injection volume of 10 μl, a wavelength of 326 nm. The mobile phase was A: water containing 0.1% acetic acid; B: acetonitrile containing 0.1% acetic acid; C: methanol containing 0.1% acetic acid; and D: isopropanol. For a run time of 40 min the gradient was: […]
The Working Solution: dissolve the sample under stability study in acetonitrile in a concentration of 1 mg/ml and inject as it.
With reference to FIG. 1 and FIG. 2, the HPLC peaks with the highest area percentage (retention time 26.1 for Compound (1a) and 12.2 for retin-15-yl ester retinoic acid).

[2] = In vitro skin corrosion membrane barrier test (CORROSITEX Assay)
Procedure: The skin corrosive potential of compound (1a) was analyzed. Corrosive chemicals are dependent on their grade of corrosivity able to break through the bio-barrier membrane employed in the “in vitro Membrane barrier test (CORROSITEX® Assay)” (see EVCAM (2000) ESAC statement on the application of the Corrositex® assay for skin corrosivity testing. The test system is composed of a synthetic bio-barrier that is placed on a chemical detection system (CDS). The time necessary to activate the CDS allows to distinguish between Corrosive© and non-corrosive (NC) test substances. Hereby the test item was placed atop the bio-barrier membranes. The CDS activation was assessed as a color change or a change in consistency. […] Compound (1a) accordingly was classified as non-corrosive.

[3] = Highest soluble concentration in DMSO; format: physicochemical; conditions: organic solvent or mixture
[4] = tested on: reconstituted three-dimensional human epidermis model (EPISKIN-SM); experiment: In vitro skin irritation test, EPISKIN-Standard Model, MTT; format: cell-based
Procedure: The skin irritant potential of compound (1a) was analyzed with a reconstituted three-dimensional human epidermis model, the EPISKIN-Standard Model® (EPISKIN-SM®) as a replacement for the Draize Skin Irritation Test (OECD TG 404) to distinguish between UN GHS “Category 2” skin irritating test substances and not categorized test substances (“No Category”) which may be considered as non-irritant. Hereby, the test item was applied topically. Cytotoxicity is expressed as reduction of mitochondrial dehydrogenase activity measured by formazan production from MTT after a 15 min exposure and 42 h post incubation period and compared to those of the concurrent negative controls.
The relative mean tissue viability after 15 min of exposure and 42 h post incubation was >50%. The test item, compound (1a) is therefore classified as “non-irritant” in accordance with UN GHS “No Category”.

BALB/c 3T3 cells = experiment: In vitro phototoxicity test, neutral red uptake with and without UVA; format: cell-based
Procedure: In the present study the phototoxicity effects of compound (1a) were analyzed by dissolving the test item in DMSO and diluting to 1.100 ratio with Earle's balanced test solution. BALB/C 3T3 cells were treated for 1 h with different concentrations of the test solution at 37±1±° C. and further 50 min in absence and in presence of a non-toxic dose of UVA light, respectively. One day after treatment cytotoxicity was analyzed as a measure of reduction of neutral red uptake and compared to the controls. […] However, since the calculated mean photo effect (MPE) is <0.1 (0.027 in a rangefinder experiment; 0.056 in the main experiment) the test item is classified as non-toxic.

Row | Compound | stability (HPLC) ([1]; after about two months) | skin corrosivity classification [2] | mean time required to activate the CDS ([2]; Corrositex bio-barrier membrane) | solubility [3] | relative mean tissue viability ([4]; 15 min exposure, 42 h post incubation) | skin irritation classification (UN GHS) ([4]; UN GHS No Category) | phototoxicity classification (BALB/c 3T3 cells; MPE <0.1) | cytotoxic effect with UVA radiation (BALB/c 3T3 cells; in case of UVA radiation) | mean photo effect (MPE) (BALB/c 3T3 cells; main experiment) | mean photo effect (MPE) (BALB/c 3T3 cells; rangefinder experiment) | decrease of purity with respect to the starting time (HPLC) ([1]; in one month)
1 | CC1=C(/C=C/C(C)=C/C=C/C(C)=C/C(=O)OCCNC(=O)c2cccnc2)C(C)(C)CCC1 [Compound (1a), 2-(nicotinamido)-ethyl retinoate] | practically stable | non-corrosive | > 60 min | 2 mg/mL (≈ 4.46 mM) | > 50% | non-irritant | non-toxic | slight cytotoxic effect | 0.056 | 0.027 | 
2 | CC1=C(/C=C/C(C)=C/C=C/C(C)=C/COC(=O)/C=C(C)/C=C/C=C(C)/C=C/C2=C(C)CCCC2(C)C)C(C)(C)CCC1 [retin-15-yl ester retinoic acid, reference compound] |  |  |  |  |  |  |  |  |  |  | 5%
